Laboratory results published in paper PMC8745314, “Novel Tetrazole-Based Antimicrobial Agents Targeting Clinical Bacteria Strains: Exploring the Inhibition of Staphylococcus aureus DNA Topoisomerase IV and Gyrase” (International Journal of Molecular Sciences, 2021).
Values after ≈ are worked out from the molar mass of the structure shown. Like-named read-outs stand apart in the source and are kept apart here.

Key:
S. aureus DNA gyrase = S. aureus DNA gyrase (Staphylococcus aureus, UniProt P0A0K8+P20831); assay: DNA gyrase supercoiling assay; format: biochemical; conditions: pBR322, read-out: IC50 ± S.E.M. for DNA Gyrase (converted)
Method: (§1) Description related to conducted biological studies including cell culture, suitable conditions, and methodology was presented in our previous paper.
Figure 2 The influence of tested compounds on S. aureus DNA gyrase activity. Decreasing amounts of 1, 2, or 3 were incubated with supercoiled pBR322 plasmid DNA (500 ng) and run-on agarose gel. Lane 1: S. aureus DNA gyrase assay with DMSO (control). Lane: 2–5: compound 3 at concentrations 64, 32, 8, 2 μg/mL, respectively. Lane: 6–9: compound 2 at concentrations 64, 32, 8, 2 μg/mL, respectively. Lane: 10–13: compound 1 at concentrations 64, 32, 8, 2 μg/mL, respectively.

[1] = target: S. aureus topoisomerase IV (Staphylococcus aureus, UniProt P0C1S7+P0C1U9); assay: Topoisomerase IV decatenation assay; format: biochemical; conditions: decatenation of kinetoplast DNA, read-out: IC50 ± S.E.M. for Topoisomerase IV (converted)
Method: as §1
Figure 1 The effect of tested compounds on S. aureus topoisomerase IV activity. Decreasing amounts of 1, 2, or 3 were incubated with 200 ng kinetoplast DNA and run-on agarose gel. Lane: 1–5: compound 3 at concentrations 64, 32, 8, 2, 0.5 μg/mL, respectively. Lane: 6–10: compound 2 at concentrations 64, 32, 8, 2, 0.5 μg/mL, respectively. Lane: 11–15: compound 1 at concentrations 64, 32, 8, 2, 0.5 μg/mL, respectively.

[2] = tested on: clinical strains (S. aureus, S. epidermidis, E. coli, K. pneumoniae, P. aeruginosa); assay: MIC ranges over the panel of clinical strains; format: cell-based
Method: In the next stage of the experiment, 8 of 11 compounds were selected for a clinical strain activity evaluation against S. aureus, S. epidermidis, E. coli, K. pneumoniae, and P. aeruginosa. […] Additionally, all three inhibited the growth of all clinical Staphylococci panels: S. aureus (T5592; T5591) and S. epidermidis (5253; 4243) with MIC values of 0.8 μg/mL.
(§2) The antimicrobial assays were conducted using reference strains of bacteria derived from international microbe collections: American Type Culture Collection (ATCC) and National Collection of Type Culture (NCTC). The following standard strains of bacteria were used: Gram-positive—Staphylococcus aureus NCTC 4163, Staphylococcus aureus ATCC 25923, Staphylococcus aureus ATCC 6538, Staphylococcus aureus ATCC 29213, Staphylococcus epidermidis ATCC 12228, Staphylococcus epidermidis ATCC 35984, Gram-negative: Escherichia coli ATCC 25922, Pseudomonas aeruginosa ATCC 15442. Clinical strains of bacteria used in this study: Gram-positive: Staphylococcus epidermidis 5253, Staphylococcus epidermidis 4243, Staphylococcus aureus T5592, Staphylococcus aureus T5591 and Gram-negative: Escherichia coli 520, Escherichia coli 600, Klebsiella pneumoniae 510 and Pseudomonas aeruginosa 659 were obtained from the collection of the Department of Pharmaceutical Microbiology, Medical University of Warsaw, Poland and they were isolated from different biological materials taken from the patients hospitalized in the Warsaw Medical University hospitals. Antimicrobial activity was examined by the minimal inhibitory concentration (MIC) method under standard procedures provided by CLSI with some modifications. MIC was determined by the two-fold serial broth microdilution method in 96-well microtitration plates using Mueller–Hinton II broth medium (Becton Dickinson, Franklin Lakes, NJ, USA). The final inoculum of all studied bacteria was 10^6 CFU/mL (colony forming unit per milliliter). The stock solution of tested compounds was prepared in dimethyl sulfoxide (DMSO) and diluted to a maximum of 1% of solvent content with a sterile medium.

E. coli 600 = assay: MIC broth microdilution, clinical isolate; format: cell-based; conditions: Escherichia coli; E. coli 600, clinical isolate, 19 h at 35 °C; read-out: minimal inhibitory concentration (MIC)
Method: (§3) In the next stage of the experiment, 8 of 11 compounds were selected for a clinical strain activity evaluation against S. aureus, S. epidermidis, E. coli, K. pneumoniae, and P. aeruginosa.
as §2, with “Antimicrobial activity was examined by the minimal inhibitory concentration (MIC) method under standard procedures provided by CLSI with some modifications.” left out

S. aureus T5591 = assay: MIC broth microdilution, clinical isolate; format: cell-based; conditions: Staphylococcus aureus, 19 h at 35 °C, read-out: minimal inhibitory concentration (MIC)
Method: as §3
as §2, with “Antimicrobial activity was examined by the minimal inhibitory concentration (MIC) method under standard procedures provided by CLSI with some modifications.” left out

P. aeruginosa 659 = assay: MIC broth microdilution, clinical isolate; format: cell-based; conditions: Pseudomonas aeruginosa; P. aeruginosa 659, clinical isolate, 19 h at 35 °C; read-out: minimal inhibitory concentration (MIC)
Method: as §3
as §2, with “Antimicrobial activity was examined by the minimal inhibitory concentration (MIC) method under standard procedures provided by CLSI with some modifications.” left out

S. epidermidis 4243 = assay: MIC broth microdilution, clinical isolate; format: cell-based; conditions: Staphylococcus epidermidis; S. epidermidis 4243, clinical isolate, 19 h at 35 °C; read-out: minimal inhibitory concentration (MIC)
Method: as §3
as §2, with “Antimicrobial activity was examined by the minimal inhibitory concentration (MIC) method under standard procedures provided by CLSI with some modifications.” left out

K. pneumoniae 510 = assay: MIC broth microdilution, clinical isolate; format: cell-based; conditions: Klebsiella pneumoniae; K. pneumoniae 510, clinical isolate, 19 h at 35 °C; read-out: minimal inhibitory concentration (MIC)
Method: as §3
as §2, with “Antimicrobial activity was examined by the minimal inhibitory concentration (MIC) method under standard procedures provided by CLSI with some modifications.” left out

S. epidermidis 5253 = assay: MIC broth microdilution, clinical isolate; format: cell-based; conditions: Staphylococcus epidermidis; S. epidermidis 5253, clinical isolate, 19 h at 35 °C; read-out: minimal inhibitory concentration (MIC)
Method: as §3
as §2, with “Antimicrobial activity was examined by the minimal inhibitory concentration (MIC) method under standard procedures provided by CLSI with some modifications.” left out

S. aureus T5592 = assay: MIC broth microdilution, clinical isolate; format: cell-based; conditions: Staphylococcus aureus, 19 h at 35 °C, read-out: minimal inhibitory concentration (MIC)
Method: as §3
as §2, with “Antimicrobial activity was examined by the minimal inhibitory concentration (MIC) method under standard procedures provided by CLSI with some modifications.” left out

E. coli 520 = assay: MIC broth microdilution, clinical isolate; format: cell-based; conditions: Escherichia coli; E. coli 520, clinical isolate, 19 h at 35 °C; read-out: minimal inhibitory concentration (MIC)
Method: as §3
as §2, with “Antimicrobial activity was examined by the minimal inhibitory concentration (MIC) method under standard procedures provided by CLSI with some modifications.” left out

[3] = 19 h, clinical (hospital) strains, read-out: MIC values, range
[4] = all clinical Staphylococci panels: S. aureus (T5592; T5591) and S. epidermidis (5253; 4243), read-out: MIC values
[5] = 19 h, against Gram-positive clinical strains, read-out: MIC values, range

MIC (E. coli 600) [µg/mL]	MIC (S. aureus T5591) [µg/mL]	MIC (P. aeruginosa 659) [µg/mL]	MIC (S. epidermidis 4243) [µg/mL]	MIC (K. pneumoniae 510) [µg/mL]	MIC (S. epidermidis 5253) [µg/mL]	MIC (S. aureus T5592) [µg/mL]	MIC (E. coli 520) [µg/mL]	MIC [2, 5] [µg/mL]	Structure (SMILES)	IC50 (S. aureus DNA gyrase) [µM]	IC50 [1] [µM]	MIC [2, 3] [µg/mL]	MIC [2, 4] [µg/mL]
256 (≈ 605 µM)	32 (≈ 75.6 µM)	256 (≈ 605 µM)	32 (≈ 75.6 µM)	256 (≈ 605 µM)	16 (≈ 37.8 µM)	16 (≈ 37.8 µM)	256 (≈ 605 µM)	2 to 32 (≈ 4.72 to 75.6 µM)	CC1=C(C)C2(C)CC1(C)C1C(=O)N(Nc3nnnn3-c3ccc([N+](=O)[O-])cc3)C(=O)C12 (stereo not drawn) [Compound 4, 4,5,6,7-Tetramethyl-2-((1-(4-nitrophenyl)-1H-tetrazol-5-yl)amino)-3a,4,7,7a-tetrahydro-1H-4,7-methanoisoindole-1,3(2H)-dione]	–	–	–	–
8 (≈ 21.1 µM)	4 (≈ 10.6 µM)	16 (≈ 42.3 µM)	4 (≈ 10.6 µM)	16 (≈ 42.3 µM)	4 (≈ 10.6 µM)	4 (≈ 10.6 µM)	8 (≈ 21.1 µM)	2 to 32 (≈ 5.28 to 84.6 µM)	CC1=C(C)C2(C)CC1(C)C1C(=O)N(Nc3nnnn3-c3ccccc3)C(=O)C12 (stereo not drawn) [Compound 6, 4,5,6,7-Tetramethyl-2-((1-phenyl-1H-tetrazol-5-yl)amino)-3a,4,7,7a-tetrahydro-1H-4,7-methanoisoindole-1,3(2H)-dione]	–	–	–	–
> 256	16 (≈ 36.6 µM)	> 256	16 (≈ 36.6 µM)	> 256	16 (≈ 36.6 µM)	16 (≈ 36.6 µM)	> 256	2 to 32 (≈ 4.57 to 73.1 µM)	CC(C)C12C=CC(C)(CC1)C1C(=O)N(Nc3nnnn3-c3ccc([N+](=O)[O-])cc3)C(=O)C12 (stereo not drawn) [Compound 8, 4-Isopropyl-7-methyl-2-((1-(4-nitrophenyl)-1H-tetrazol-5-yl)amino)-3a,4,7,7a-tetrahydro-1H-4,7-ethanoisoindole-1,3(2H)-dione]	–	–	–	–
8 (≈ 17 µM)	4 (≈ 8.49 µM)	16 (≈ 33.9 µM)	2 (≈ 4.24 µM)	16 (≈ 33.9 µM)	4 (≈ 8.49 µM)	4 (≈ 8.49 µM)	8 (≈ 17 µM)	2 to 32 (≈ 4.24 to 67.9 µM)	CC(C)C12C=CC(C)(CC1)C1C(=O)N(Nc3nnnn3-c3ccccc3Br)C(=O)C12 (stereo not drawn) [Compound 9, 2-((1-(2-Bromophenyl)-1H-tetrazol-5-yl)amino)-4-isopropyl-7-methyl-3a,4,7,7a-tetrahydro-1H-4,7-ethanoisoindole-1,3(2H)-dione]	–	–	–	–
32 (≈ 78.7 µM)	16 (≈ 39.4 µM)	32 (≈ 78.7 µM)	8 (≈ 19.7 µM)	32 (≈ 78.7 µM)	16 (≈ 39.4 µM)	16 (≈ 39.4 µM)	32 (≈ 78.7 µM)	2 to 32 (≈ 4.92 to 78.7 µM)	Cc1ccc(-n2nnnc2NN2C(=O)C3C(C2=O)C2(C(C)C)C=CC3(C)CC2)cc1 (stereo not drawn) [Compound 10, 4-Isopropyl-7-methyl-2-((1-(p-tolyl)-1H-tetrazol-5-yl)amino)-3a,4,7,7a-tetrahydro-1H-4,7-ethanoisoindole-1,3(2H)-dione]	–	–	–	–

Structure (SMILES)	MIC (E. coli 600) [µg/mL]	MIC (S. aureus T5591) [µg/mL]	MIC (P. aeruginosa 659) [µg/mL]	MIC (S. epidermidis 4243) [µg/mL]	MIC (K. pneumoniae 510) [µg/mL]	MIC (S. epidermidis 5253) [µg/mL]	MIC (S. aureus T5592) [µg/mL]	MIC (E. coli 520) [µg/mL]	MIC [2, 5] [µg/mL]	IC50 (S. aureus DNA gyrase) [µM]	IC50 [1] [µM]	MIC [2, 3] [µg/mL]	MIC [2, 4] [µg/mL]
CC1=C(C)C2(C)CC1(C)C1C(=O)N(Nc3nnnn3-c3cccc(C(F)(F)F)c3)C(=O)C12 (stereo not drawn) [Compound 1, 4,5,6,7-Tetramethyl-2-((1-(3-(trifluoromethyl)phenyl)-1H-tetrazol-5-yl)amino)-3a,4,7,7a-tetrahydro-1H-4,7-methanoisoindole-1,3(2H)-dione]	3.2 (≈ 7.17 µM)	0.8 (≈ 1.79 µM)	1.6 (≈ 3.58 µM)	0.8 (≈ 1.79 µM)	3.2 (≈ 7.17 µM)	0.8 (≈ 1.79 µM)	0.8 (≈ 1.79 µM)	3.2 (≈ 7.17 µM)	–	71.8	142	0.8 to 3.2 (≈ 1.79 to 7.17 µM)	0.8 (≈ 1.79 µM)
CC1=C(C)C2(C)CC1(C)C1C(=O)N(Nc3nnnn3-c3ccccc3Cl)C(=O)C12 (stereo not drawn) [Compound 2, 2-((1-(2-Chlorophenyl)-1H-tetrazol-5-yl)amino)-4,5,6,7-tetramethyl-3a,4,7,7a-tetrahydro-1H-4,7-methanoisoindole-1,3(2H)-dione]	1.6 (≈ 3.88 µM)	0.8 (≈ 1.94 µM)	1.6 (≈ 3.88 µM)	0.8 (≈ 1.94 µM)	3.2 (≈ 7.75 µM)	0.8 (≈ 1.94 µM)	0.8 (≈ 1.94 µM)	3.2 (≈ 7.75 µM)	–	90.9	141	0.8 to 3.2 (≈ 1.94 to 7.75 µM)	0.8 (≈ 1.94 µM)
CC1=C(C)C2(C)CC1(C)C1C(=O)N(Nc3nnnn3-c3ccccc3Br)C(=O)C12 (stereo not drawn) [Compound 3, 2-((1-(2-Bromophenyl)-1H-tetrazol-5-yl)amino)-4,5,6,7-tetramethyl-3a,4,7,7a-tetrahydro-1H-4,7-methanoisoindole-1,3(2H)-dione]	1.6 (≈ 3.5 µM)	0.8 (≈ 1.75 µM)	1.6 (≈ 3.5 µM)	0.8 (≈ 1.75 µM)	3.2 (≈ 7 µM)	0.8 (≈ 1.75 µM)	0.8 (≈ 1.75 µM)	1.6 (≈ 3.5 µM)	–	99.3	134	0.8 to 3.2 (≈ 1.75 to 7 µM)	0.8 (≈ 1.75 µM)
